Assays:
[1] = test system: B. subtilis 168; test: fitness (endpoint OD595 vs no drug) (fraction); higher = more growth
In short: (§1)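 With the first reading as background, OD595 was measured every 30 min for 14 h in 384-well plates kept at 37 °C and inoculated at OD595 0.01. TSB, LB Lennox or CY was the medium. Fitness is the optical density at the transition into stationary phase divided by the robust mean of no-drug control wells, with a cap of 1.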

[2] = test system: S. aureus Newman; test: as above
In short: as §1

[3] = test system: S. pneumoniae D39V; test: as above
In short: as §1

[4] = test system: B. subtilis 168; test: Bliss interaction score (quartile over a dose matrix) (fitness difference); higher = more antagonism (negative = synergy)
In short: (§2)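 Growth was read as OD595 when cultures entered stationary phase, and each value was divided by the plate's robust no-drug mean and capped at 1. This normalised ratio is the fitness value, and fitness for each single drug came from the combination data. The Bliss score subtracts the expected fitness, taken as the product, from the observed fitness and is given as quartiles across technical, biological and donor/recipient replicates.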

[5] = test system: S. aureus DSM 20231; test: as above
In short: as §2

[6] = test system: S. aureus Newman; test: as above
In short: as §2

[7] = test system: S. pneumoniae D39V; test: as above
In short: as §2
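For Bliss interaction score (quartile over a dose matrix) in this document: first quartile when negative (synergy) and third quartile when positive (antagonism).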
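For fitness (endpoint OD595 vs no drug) in this document: OD595 on entry to stationary phase over no-drug wells; at most 1.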

O=C(O)c1cn(C2CC2)c2cc(N3CCNCC3)c(F)cc2c1=O [Ciprofloxacin] + Cc1ncc([N+](=O)[O-])n1CCO [Metronidazole]
Conditions	fitness
[1], first compound 0.0098 µg/mL, partner 0.625 µg/mL	0.951
[1], first compound 0.0098 µg/mL, partner 1.25 µg/mL	0.922
[1], first compound 0.0098 µg/mL, partner 2.5 µg/mL	0.89
[1], first compound 0.0195 µg/mL, partner 0.625 µg/mL	0.771
[1], first compound 0.0195 µg/mL, partner 1.25 µg/mL	0.75
[1], first compound 0.0195 µg/mL, partner 2.5 µg/mL	0.727
[1], first compound 0.039 µg/mL, partner 1.25 µg/mL	0.29
[1], first compound 0.039 µg/mL, partner 2.5 µg/mL	0.222
[2], first compound 0.0375 µg/mL, partner 0.625 µg/mL	0.649
[2], first compound 0.0375 µg/mL, partner 1.25 µg/mL	0.694
[2], first compound 0.0375 µg/mL, partner 2.5 µg/mL	0.693
[2], first compound 0.075 µg/mL, partner 0.625 µg/mL	0.725
[2], first compound 0.075 µg/mL, partner 2.5 µg/mL	0.732
[2], first compound 0.15 µg/mL, partner 2.5 µg/mL	0.0713
[3], first compound 0.125 µg/mL, partner 1.073 µg/mL	0.935
[3], first compound 0.125 µg/mL, partner 1.25 µg/mL	0.98
[3], first compound 0.125 µg/mL, partner 2.145 µg/mL	0.894
[3], first compound 0.125 µg/mL, partner 2.5 µg/mL	0.987
[3], first compound 0.125 µg/mL, partner 4.29 µg/mL	0.916
[3], first compound 0.125 µg/mL, partner 5 µg/mL	0.983
[3], first compound 0.25 µg/mL, partner 1.073 µg/mL	0.923
[3], first compound 0.25 µg/mL, partner 2.145 µg/mL	0.895
[3], first compound 0.25 µg/mL, partner 4.29 µg/mL	0.892
[3], first compound 0.5 µg/mL, partner 1.073 µg/mL	0.711
[3], first compound 0.5 µg/mL, partner 2.5 µg/mL	0.781
[3], first compound 0.5 µg/mL, partner 4.29 µg/mL	0.69
[3], first compound 0.5 µg/mL, partner 5 µg/mL	0.81

fitness, one replicate
Conditions	partner 0.781 µg/mL	partner 1.25 µg/mL	partner 1.562 µg/mL	partner 2.5 µg/mL	partner 3.124 µg/mL	partner 5 µg/mL
[2], first compound 0.0375 µg/mL	0.653	–	0.663	–	0.644	–
[2], first compound 0.075 µg/mL	0.648	–	0.736	–	0.703	–
[2], first compound 0.15 µg/mL	0.0339	–	0.0507	–	0.0416	–
[3], first compound 0.25 µg/mL	–	0.903	–	0.911	–	0.902

Conditions	Bliss interaction score
[4]	0.0696
[5]	0.0471
[6]	0.0782
[7]	0.0544

CO/N=C(\C(=O)N[C@@H]1C(=O)N2C(C(=O)O)=C(COC(N)=O)CS[C@H]12)c1ccco1 [Cefuroxime] + Cc1ncc([N+](=O)[O-])n1CCO [Metronidazole]
fitness, [1]
Conditions	partner 0.625 µg/mL	partner 1.25 µg/mL	partner 2.5 µg/mL
first compound 0.04875 µg/mL	0.741	0.767	0.715
first compound 0.195 µg/mL	0.547	0.515	0.497

fitness, one replicate
Conditions	first compound 0.04875 µg/mL	first compound 0.0975 µg/mL	first compound 0.195 µg/mL	first compound 1.562 µg/mL	first compound 3.125 µg/mL	first compound 6.25 µg/mL
[1], partner 0.625 µg/mL	–	–	–	0.428	0.372	0.251
[1], partner 1.25 µg/mL	–	–	–	0.376	0.268	0.242
[1], partner 2.5 µg/mL	–	–	–	0.287	0.219	0.15
[2], partner 0.625 µg/mL	≥ 1	0.897	0.943	–	–	–
[2], partner 1.25 µg/mL	0.923	0.939	0.978	–	–	–
[2], partner 2.5 µg/mL	0.993	0.918	0.921	–	–	–

Conditions	Bliss interaction score
[4]	0.0643
[5]	0.132
[6]	-0.0487
[7]	-0.0335

CO/N=C(\C(=O)N[C@@H]1C(=O)N2C(C(=O)O)=C(COC(N)=O)CS[C@H]12)c1ccco1 [Cefuroxime] + CN(N=O)C(=O)N[C@@H](C=O)[C@@H](O)[C@H](O)[C@H](O)CO [Streptozotocin]
fitness, [1]
Conditions	first compound 0.04875 µg/mL	first compound 0.0975 µg/mL	first compound 0.195 µg/mL
partner 0.15 µg/mL	0.717	0.688	0.539
partner 0.3 µg/mL	–	–	0.54
partner 0.6 µg/mL	–	–	0.496

fitness, [2], one replicate
Conditions	first compound 0.04875 µg/mL	first compound 0.0975 µg/mL	first compound 0.195 µg/mL
partner 0.15 µg/mL	0.958	0.995	0.96
partner 0.3 µg/mL	0.731	0.723	0.736
partner 0.6 µg/mL	0.534	0.51	0.464

Conditions	Bliss interaction score
[4]	-0.0649
[5]	0.0897
[6]	-0.194
[7]	-0.0368

From the supplement of paper PMC10627819
